Test results taken from US20120220562A1, “Anti-Viral Compounds” (ABBOTT LABAORATORIES, priority 2011, published 2012).

test system: HCV 1b-Con1 replicon; assay: HCV 1b-Con1 replicon assay in the presence of 5% FBS; type: cell-based; details: Hepatitis C virus

SMILES	EC50 [nM]
COC(=O)N[C@H](C(=O)N1CCC[C@H]1c1nc2cc([C@H]3CC[C@H](c4ccc5[nH]c([C@@H]6CCCN6C(=O)[C@@H](NC(=O)OC)C(C)C)nc5c4)N3c3cc(F)c(N4CCC5(CC4)CC5)c(F)c3)ccc2[nH]1)C(C)C [Example 5.11, methyl {(2S)-1-[(2S)-2-{5-[(2R,5R)-1-[4-(6-azaspiro[2.5]oct-6-yl)-3,5-difluorophenyl]-5-{2-[(2S)-1-{(2S)-2-[(methoxycarbonyl)amino]-3-methylbutanoyl}pyrrolidin-2-yl]-1H-benzimidazol-5-yl}pyrrolidin-2-yl]-1H-benzimidazol-2-yl}pyrrolidin-1-yl]-3-methyl-1-oxobutan-2-yl}carbamate]	< 0.1
COC(=O)N[C@H](C(=O)N1CCC[C@H]1c1nc2cc([C@H]3CC[C@H](c4ccc5[nH]c([C@@H]6CCCN6C(=O)[C@@H](NC(=O)OC)C(C)(C)C)nc5c4)N3c3cc(F)c(N4CCC(c5ccccc5)CC4)c(F)c3)ccc2[nH]1)C(C)(C)C [Example 5.4, methyl {(2S)-1-[(2S)-2-{5-[(2R,5R)-1-[3,5-difluoro-4-(4-phenylpiperidin-1-yl)phenyl]-5-{2-[(2S)-1-{(2S)-2-[(methoxycarbonyl)amino]-3,3-dimethylbutanoyl}pyrrolidin-2-yl]-1H-benzimidazol-5-yl}pyrrolidin-2-yl]-1H-benzimidazol-2-yl}pyrrolidin-1-yl]-3,3-dimethyl-1-oxobutan-2-yl}carbamate]	< 0.1
COC(=O)N[C@H](C(=O)N1CCC[C@H]1c1nc2cc([C@H]3CC[C@H](c4cc5nc([C@@H]6CCCN6C(=O)[C@@H](NC(=O)OC)C(C)C)[nH]c5cc4F)N3c3cc(F)c(N4CCC(C(F)(c5ccccc5)c5ccccc5)CC4)c(F)c3)c(F)cc2[nH]1)C(C)C [Example 4.37, methyl {(2S)-1-[(2S)-2-{5-[(2R,5R)-1-(3,5-difluoro-4-{4-[fluoro(diphenyl)methyl]piperidin-1-yl}phenyl)-5-{6-fluoro-2-[(2S)-1-{(2S)-2-[(methoxycarbonyl)amino]-3-methylbutanoyl}pyrrolidin-2-yl]-1H-benzimidazol-5-yl}pyrrolidin-2-yl]-6-fluoro-1H-benzimidazol-2-yl}pyrrolidin-1-yl]-3-methyl-1-oxobutan-2-yl}carbamate]	< 0.1
COC(=O)N[C@H](C(=O)N1CCC[C@H]1c1nc2cc([C@H]3CC[C@H](c4ccc5[nH]c([C@@H]6CCCN6C(=O)[C@@H](NC(=O)OC)C(C)C)nc5c4)N3c3ccc(N4CCCCC4)c(C)c3)ccc2[nH]1)C(C)C [Example 4.2, methyl {(2S)-1-[(2S)-2-(5-{(2R,5R)-5-{2-[(2S)-1-{(2S)-2-[(methoxycarbonyl)amino]-3-methylbutanoyl}pyrrolidin-2-yl]-1H-benzimidazol-5-yl}-1-[3-methyl-4-(piperidin-1-yl)phenyl]pyrrolidin-2-yl}-1H-benzimidazol-2-yl)pyrrolidin-1-yl]-3-methyl-1-oxobutan-2-yl}carbamate]	< 0.1
COC(=O)N[C@H](C(=O)N1CCC[C@H]1c1nc2c(C)c([C@H]3CC[C@@H](c4ccc5[nH]c([C@@H]6CCCN6C(=O)[C@@H](NC(=O)OC)C(C)C)nc5c4C)N3c3ccc(C(C)(C)C)cc3)ccc2[nH]1)C(C)C [Example 6.8, methyl {(2S)-1-[(2S)-2-{5-[(2R,5S)-1-(4-tert-butylphenyl)-5-{2-[(2S)-1-{(2S)-2-[(methoxycarbonyl)amino]-3-methylbutanoyl}pyrrolidin-2-yl]-4-methyl-1H-benzimidazol-5-yl}pyrrolidin-2-yl]-4-methyl-1H-benzimidazol-2-yl}pyrrolidin-1-yl]-3-methyl-1-oxobutan-2-yl}carbamate]	< 0.1
CCC1(COc2ccc(N3[C@@H](c4ccc5[nH]c([C@@H]6CCCN6C(=O)[C@@H](NC(=O)OC)C(C)C)nc5c4)CC[C@@H]3c3ccc4[nH]c([C@@H]5CCCN5C(=O)[C@@H](NC(=O)OC)C(C)C)nc4c3)cc2)COC1 [Example 1.7, methyl {(2S)-1-[(2S)-2-{5-[(2R,5R)-1-{4-[(3-ethyloxetan-3-yl)methoxy]phenyl}-5-{2-[(2S)-1-{(2S)-2-[(methoxycarbonyl)amino]-3-methylbutanoyl}pyrrolidin-2-yl]-1H-benzimidazol-5-yl}pyrrolidin-2-yl]-1H-benzimidazol-2-yl}pyrrolidin-1-yl]-3-methyl-1-oxobutan-2-yl}carbamate]	< 0.1
COC(=O)N[C@H](C(=O)N1CCC[C@H]1c1nc2cc([C@H]3CC[C@H](c4cc5nc([C@@H]6CCCN6C(=O)[C@@H](NC(=O)OC)C(C)C)[nH]c5cc4F)N3c3cc(F)c(N4CCC(C5CCCCC5)CC4)c(F)c3)c(F)cc2[nH]1)C(C)C [Example 4.54, methyl {(2S)-1-[(2S)-2-{5[(2R,5R)-1-[4-(4-cyclohexylpiperidin-1-yl)-3,5-difluorophenyl]-5-{6-fluoro-2-[(2S)-1-{(2S)-2-[(methoxycarbonyl)amino]-3-methylbutanoyl}pyrrolidin-2-yl]-1H-benzimidazol-5-yl}pyrrolidin-2-yl]-6-fluoro-1H-benzimidazol-2-yl}pyrrolidin-1-yl]-3-methyl-1-oxobutan-2-yl}carbamate]	< 0.1
COC(=O)N[C@H](C(=O)N1CCC[C@H]1c1nc2cc([C@H]3CC[C@H](c4cc5nc([C@@H]6CCCN6C(=O)[C@@H](NC(=O)OC)C6CCCC6)[nH]c5cc4F)N3c3cc(F)c(N4CCC(c5ccccc5)CC4)c(F)c3)c(F)cc2[nH]1)C1CCCC1 [Example 4.40, dimethyl ({(2R,5R)-1-[3,5-difluoro-4-(4-phenylpiperidin-1-yl)phenyl]pyrrolidine-2,5-diyl}bis{(6-fluoro-1H-benzimidazole-5,2-diyl)(2S)pyrrolidine-2,1-diyl[(1S)-1-cyclopentyl-2-oxoethane-2,1-diyl]})biscarbamate]	< 0.1
COC(=O)N[C@H](C(=O)N1CCC[C@H]1c1nc2c(C)c([C@H]3CC[C@H](c4ccc5[nH]c([C@@H]6CCCN6C(=O)[C@@H](NC(=O)OC)C(C)C)nc5c4C)N3c3ccc(C(C)(C)C)cc3)ccc2[nH]1)C(C)C [Example 6.7, methyl {(2S)-1-[(2S)-2-{5-[(2R,5R)-1-(4-tert-butylphenyl)-5-{2-[(2S)-1-{(2S)-2-[(methoxycarbonyl)amino]-3-methylbutanoyl}pyrrolidin-2-yl]-4-methyl-1H-benzimidazol-5-yl}pyrrolidin-2-yl]-4-methyl-1H-benzimidazol-2-yl}pyrrolidin-1-yl]-3-methyl-1-oxobutan-2-yl}carbamate]	< 0.1
COC(=O)N[C@H](C(=O)N1CCC[C@H]1c1nc2cc([C@H]3CC[C@H](c4cc5nc([C@@H]6CCCN6C(=O)[C@@H](NC(=O)OC)C(C)C)[nH]c5cc4F)N3c3cc(F)c(N4CCC(C(C)(C)C)CC4)c(F)c3)c(F)cc2[nH]1)C(C)C [Example 4.27, methyl {(2S)-1-[(2S)-2-{5-[(2R,5R)-1-[4-(4-tert-butylpiperidin-1-yl)-3,5-difluorophenyl]-5-{6-fluoro-2-[(2S)-1-{(2S)-2-[(methoxycarbonyl)amino]-3-methylbutanoyl}pyrrolidin-2-yl]-1H-benzimidazol-5-yl}pyrrolidin-2-yl]-6-fluoro-1H-benzimidazol-2-yl}pyrrolidin-1-yl]-3-methyl-1-oxobutan-2-yl}carbamate]	< 0.1
COC(=O)N[C@H](C(=O)N1CCC[C@H]1c1nc2ccc([C@H]3CC[C@H](c4ccc5nc([C@@H]6CCCN6C(=O)[C@@H](NC(=O)OC)C(C)C)[nH]c5c4)N3c3c(F)c(F)c(N4CCCCC4)c(F)c3F)cc2[nH]1)C(C)C [Example 2.6, methyl {(2S)-1-[(2S)-2-(6-{(2R,5R)-5-{2-[(2S)-1-{(2S)-2-[(methoxycarbonyl)amino]-3-methylbutanoyl}pyrrolidin-2-yl]-1H-benzimidazol-6-yl}-1-[2,3,5,6-tetrafluoro-4-(piperidin-1-yl)phenyl]pyrrolidin-2-yl}-1H-benzimidazol-2-yl)pyrrolidin-1-yl]-3-methyl-1-oxobutan-2-yl}carbamate]	< 0.1
COC(=O)N[C@H](C(=O)N1CCC[C@H]1c1nc2cc(F)c([C@H]3CC[C@H](c4cc5[nH]c([C@@H]6CCCN6C(=O)[C@@H](NC(=O)OC)C(C)C)nc5cc4F)N3c3cc(F)c(N4CCN(c5c(F)cccc5F)CC4)c(F)c3)cc2[nH]1)C(C)C [Example 6.16, methyl {(2S)-1-[(2S)-2-{6-[(2R,5R)-1-{4-[4-(2,6-difluorophenyl)piperazin-1-yl]-3,5-difluorophenyl}-5-{5-fluoro-2-[(2S)-1-{(2S)-2-[(methoxycarbonyl)amino]-3-methylbutanoyl}pyrrolidin-2-yl]-1H-benzimidazol-6-yl}pyrrolidin-2-yl]-5-fluoro-1H-benzimidazol-2-yl}pyrrolidin-1-yl]-3-methyl-1-oxobutan-2-yl}carbamate]	< 0.1
COC(=O)N[C@H](C(=O)N1CCC[C@H]1c1nc2cc([C@H]3CC[C@H](c4ccc5[nH]c([C@@H]6CCCN6C(=O)[C@@H](NC(=O)OC)C(C)C)nc5c4)N3c3ccc(-c4ccccn4)cc3)ccc2[nH]1)C(C)C [Example 3.1, methyl {(2S)-1-[(2S)-2-(5-{(2R,5R)-5-{2-[(2S)-1-{(2S)-2-[(methoxycarbonyl)amino]-3-methylbutanoyl}pyrrolidin-2-yl]-1H-benzimidazol-5-yl}-1-[4-(pyridin-2-yl)phenyl]pyrrolidin-2-yl}-1H-benzimidazol-2-yl)pyrrolidin-1-yl]-3-methyl-1-oxobutan-2-yl}carbamate]	< 0.1
COC(=O)N[C@H](C(=O)N1C2CCC(C2)[C@H]1c1nc2cc([C@H]3CC[C@H](c4ccc5[nH]c([C@@H]6C7CCC(C7)N6C(=O)[C@@H](NC(=O)OC)C(C)C)nc5c4)N3c3cc(F)c(N4CCCCC4)c(F)c3)ccc2[nH]1)C(C)C [Example 3.19, methyl {(2S)-1-[(3S)-3-{5-[(2R,5R)-1-[3,5-difluoro-4-(piperidin-1-yl)phenyl]-5-{2-[(3S)-2-{(2S)-2-[(methoxycarbonyl)amino]-3-methylbutanoyl}-2-azabicyclo[2.2.1]hept-3-yl]-1H-benzimidazol-5-yl}pyrrolidin-2-yl]-1H-benzimidazol-2-yl}-2-azabicyclo[2.2.1]hept-2-yl]-3-methyl-1-oxobutan-2-yl}carbamate]	< 0.1
